Results from US20230322723A1, “COMPOUNDS FOR SUPPRESSING EGFR MUTANT CANCER AND PHARMACEUTICAL USE THEREOF” (J2H BIOTECH INC., priority 2020, published 2023).

What was measured:
[1] = target: T1, EGFR^L858R+T790M+C797S (Homo sapiens, UniProt P00533, C797S/L858R/T790M); assay: EGFR protein degradation test (Western blot) in Ba/F3 cells expressing mutant EGFR L858R+T790M+C797S (LTC); type: cell-based; conditions: compounds at 0.1 μM and 1 μM, 24 hours, Western blot with EGFR antibody
T1 construct: expressed in transfected cells; host or cells: Ba/F3
In short: (§1)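 EGFR protein level was measured by Western blot on 30 μg lysate, bands quantified by imager. Lysates came from Ba/F3 lines carrying normal, LTC or DTC mutant EGFR, exposed 24 h to compound at 0.1 and 1 μM.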

[2] = Pharmacokinetic evaluation after single oral administration to ICR mice; type: in vivo; conditions: mouse, ICR mice, single oral dose 5 mg/kg, plasma; for AUC(0-t): read-out: AUC0-24
Description: Pharmacokinetic tests for the compounds of the present invention were conducted as below. After a single oral administration of the compound of the present invention to ICR mice, the concentration of the compound over time was followed up and analyzed.
The compound of the present invention was suspended in 10% DMSO/90% (30% HPbCD aqueous solution) and orally administered to mice at a dose of 5 mg/kg. Blood was collected at a fixed time and plasma was separated. Drug analysis was performed using HPLC (XBridge column C18, Waters, mobile phase 0.1% formic acid:acetonitrile (30:70, %/%)) and MS/MS (ESI positive, MRM). Mouse blood plasma and each commercially available standard solution were mixed at a ratio of 9:1 to prepare and calibrate at concentrations of […] 5,000 ng/mL. In addition, the preparation of QC samples was prepared by mixing the mouse blood plasma and the standard solution for QC at a ratio of 9:1, and prepared to be concentrations of 100, 750 and 2,500 ng/mL. 100 μL of the plasma sample was transferred to a centrifugation tube, and 10 μL of the internal standard solution and 300 μL of methanol were added, followed by mixing for about 30 seconds for pretreatment. The tube was centrifuged at 3,000×g (4° C.) for about 5 minutes, and the supernatant was taken and transferred to an LC vial and injected into the instrument. Then, the concentration of the compound in mouse plasma was quantified by applying a previously validated assay. For pharmacokinetic parameters, the program WinNonlin 5.2 (Pharsight, USA) was used. AUC0-t, AUC0-∞, Cmax, Tmax, and t1/2 were calculated by Noncompartment modeling (best fit). The pharmacokinetic parameter results were expressed as the mean (Mean) and standard deviation (SD), and were statistically processed using the SPSS program (Statistical Package for the Social Sciences, 10.0K, USA).

[3] = system: EGFR^del19+T790M+C797S; assay: EGFR protein degradation test (Western blot) in Ba/F3 cells expressing mutant EGFR del19+T790M+C797S (DTC); type: cell-based; conditions: compounds at 0.1 μM and 1 μM, 24 hours, Western blot with EGFR antibody
In short: as §1

T1 sequence (P00533 25-1210 T790M/C797S/L858R): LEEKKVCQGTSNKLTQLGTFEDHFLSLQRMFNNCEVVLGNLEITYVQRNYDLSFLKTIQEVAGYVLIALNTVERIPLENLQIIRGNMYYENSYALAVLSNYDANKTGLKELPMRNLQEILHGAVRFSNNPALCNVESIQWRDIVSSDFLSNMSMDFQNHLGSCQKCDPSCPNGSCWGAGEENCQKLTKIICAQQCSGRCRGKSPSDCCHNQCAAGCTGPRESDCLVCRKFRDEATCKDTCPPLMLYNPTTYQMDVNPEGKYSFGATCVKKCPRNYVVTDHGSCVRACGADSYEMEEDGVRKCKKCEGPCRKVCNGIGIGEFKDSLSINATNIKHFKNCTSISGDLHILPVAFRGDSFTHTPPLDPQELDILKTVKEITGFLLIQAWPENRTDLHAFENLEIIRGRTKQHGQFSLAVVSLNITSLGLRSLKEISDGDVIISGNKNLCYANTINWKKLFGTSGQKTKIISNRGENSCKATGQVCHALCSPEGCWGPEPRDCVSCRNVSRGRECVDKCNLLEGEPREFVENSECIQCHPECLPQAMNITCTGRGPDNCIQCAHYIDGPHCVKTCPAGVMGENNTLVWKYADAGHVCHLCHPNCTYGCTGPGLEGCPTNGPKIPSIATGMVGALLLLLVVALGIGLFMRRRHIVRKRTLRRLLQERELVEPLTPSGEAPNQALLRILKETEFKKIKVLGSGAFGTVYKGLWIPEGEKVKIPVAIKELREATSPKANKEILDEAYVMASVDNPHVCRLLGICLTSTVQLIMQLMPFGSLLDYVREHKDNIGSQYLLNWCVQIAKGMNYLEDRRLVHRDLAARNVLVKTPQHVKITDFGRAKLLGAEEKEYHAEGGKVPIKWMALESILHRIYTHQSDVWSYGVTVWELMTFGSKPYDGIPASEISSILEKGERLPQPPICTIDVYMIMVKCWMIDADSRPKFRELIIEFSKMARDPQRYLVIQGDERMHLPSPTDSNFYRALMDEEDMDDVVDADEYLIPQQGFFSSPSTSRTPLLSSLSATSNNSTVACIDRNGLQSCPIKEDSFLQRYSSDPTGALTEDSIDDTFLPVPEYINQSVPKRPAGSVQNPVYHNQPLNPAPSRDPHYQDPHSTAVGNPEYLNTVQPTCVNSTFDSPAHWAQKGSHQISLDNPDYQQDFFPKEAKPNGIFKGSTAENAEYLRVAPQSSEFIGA

Row | LTC (EGFR^L858R+T790M+C797S) protein degradation [1] | half-life [2] [h] | AUC(0-t) [2] [ng·h/mL] | Structure (SMILES) | DTC (EGFR^del19+T790M+C797S) protein degradation [3]
1 | ++ (Protein degradation > 80%) | 8.89 | 68 | COc1cc(N2CCC(CN3CCN(CC(=O)N[C@H](C(=O)N4C[C@H](O)CC4C(=O)NCc4ccc(-c5scnc5C)cc4)C(C)(C)C)CC3)CC2)ccc1Nc1ncc(Cl)c(Nc2ccccc2N(C)S(C)(=O)=O)n1 (stereo in doubt) [Compound 27, (2R,4R)-1-((S)-2-(2-(4-((1-(4-((5-chloro-4-((2-(N-methylmethylsulfonamido)phenyl)amino)pyrimidin-2-yl)amino)-3-methoxyphenyl)piperidin-4-yl)methyl)piperazin-1-yl)acetamido)-3,3-dimethylbutanoyl)-4-hydroxy-N-(4-(4-methylthiazol-5-yl)benzyl)pyrrolidin-2-carboxamide] | ++ (Protein degradation > 80%)
2 | ++ (Protein degradation > 80%) | 6.23 | 1170 | COc1cc(N2CCN(CC3CCN(CC(=O)N[C@H](C(=O)N4C[C@H](O)CC4C(=O)NCc4ccc(-c5scnc5C)cc4)C(C)(C)C)CC3)CC2)ccc1Nc1ncc(Cl)c(Nc2ccccc2N(C)S(C)(=O)=O)n1 (stereo in doubt) [Compound 28, (2R,4R)-1-((S)-2-(2-(4-((4-(4-((5-chloro-4-((2-(N-methylmethylsulfonamido)phenyl)amino)pyrimidin-2-yl)amino)-3-methoxyphenyl)piperazin-1-yl)methyl)piperidin-1-yl)acetamido)-3,3-dimethylbutanoyl)-4-hydroxy-N-(4-(4-methylthiazol-5-yl)benzyl)pyrrolidin-2-carboxamide] | ++ (Protein degradation > 80%)
3 | ++ (Protein degradation > 80%) | 6.54 | 553 | COc1cc(N2CCC(N3CCN(CC(=O)N[C@H](C(=O)N4C[C@H](O)C[C@@H]4C(=O)NCc4ccc(-c5scnc5C)cc4)C(C)(C)C)CC3)CC2)ccc1Nc1ncc(Cl)c(Nc2ccccc2N(C)S(C)(=O)=O)n1 [Compound 11, (2R,4R)-1-((S)-2-(2-(4-(1-(4-((5-chloro-4-((2-(N-methylmethylsulfonamido)phenyl)amino)pyrimidin-2-yl)amino)-3-methoxyphenyl)piperidin-4-yl)piperazin-1-yl)acetamido)-3,3-dimethylbutanoyl)-4-hydroxy-N-(4-(4-methylthiazol-5-yl)benzyl)pyrrolidin-2-carboxamide] | ++ (Protein degradation > 80%)
4 | ++ (Protein degradation > 80%) | 8.99 | 42 | COc1cc(N2CCC(N3CCN(CCC(=O)N[C@H](C(=O)N4C[C@H](O)C[C@@H]4C(=O)NCc4ccc(-c5scnc5C)cc4)C(C)(C)C)CC3)CC2)ccc1Nc1ncc(Cl)c(Nc2ccccc2N(C)S(C)(=O)=O)n1 [Compound 20, (2R,4R)-1-((S)-2-(3-(4-(1-(4-((5-chloro-4-((2-(N-methylmethylsulfonamido)phenyl)amino)pyrimidin-2-yl)amino)-3-methoxyphenyl)piperidin-4-yl)piperazin-1-yl)propanamido)-3,3-dimethylbutanoyl)-4-hydroxy-N-(4-(4-methylthiazol-5-yl)benzyl)pyrrolidin-2-carboxamide] | ++ (Protein degradation > 80%)
5 | ++ (Protein degradation > 80%) | 12.4 | 47 | COc1cc(N2CCC(N3CCN(CC(=O)Nc4cccc5c4CN(C4CCC(=O)NC4=O)C5=O)CC3)CC2)ccc1Nc1ncc(Cl)c(Nc2ccccc2N(C)S(C)(=O)=O)n1 (stereo not drawn) [Compound 22, 2-(4-(1-(4-((5-chloro-4-((2-(N-methylmethylsulfonamido)phenyl)amino)pyrimidin-2-yl)amino)-3-methoxyphenyl)piperidin-4-yl)piperazin-1-yl)-N-(2-(2,6-dioxopiperidin-3-yl)-1-oxoisoindolin-4-yl)acetamide] | ++ (Protein degradation > 80%)
6 | − (Protein degradation < 20%) |  |  | COc1cc(N2CCN(CC#Cc3ccc4c(c3)C(=O)N(C3CCC(=O)NC3=O)C4=O)CC2)ccc1Nc1ncc(Cl)c(Nc2ccccc2N(C)S(C)(=O)=O)n1 (stereo not drawn) [Compound 73, N-(2-((5-chloro-2-((4-(4-(3-(2-(2,6-dioxopiperidin-3-yl)-1,3-dioxoisoindolin-5-yl)prop-2-yn-1-yl)piperazin-1-yl)-2-methoxyphenyl)amino)pyrimidin-4-yl)amino)phenyl)-N-methylmethanesulfonamide] | − (Protein degradation < 20%)

Row | Structure (SMILES) | LTC (EGFR^L858R+T790M+C797S) protein degradation [1] | half-life [2] [h] | AUC(0-t) [2] [ng·h/mL] | DTC (EGFR^del19+T790M+C797S) protein degradation [3]
7 | COc1cc(N2CCN(CC3CCN(C(=O)CNc4ccc5c(c4)C(=O)N(C4CCC(=O)NC4=O)C5=O)CC3)CC2)ccc1Nc1ncc(Cl)c(Nc2ccccc2N(C)S(C)(=O)=O)n1 (stereo not drawn) [Compound 66, N-(2-((5-chloro-2-((4-(4-((1-((2-(2,6-dioxopiperidin-3-yl)-1,3-dioxoisoindolin-5-yl)glycyl)piperidin-4-yl)methyl)piperazin-1-yl)-2-methoxyphenyl)amino)pyrimidin-4-yl)amino)phenyl)-N-methylmethanesulfonamide] | ++ (Protein degradation > 80%) |  |  | ++ (Protein degradation > 80%)
8 | COc1cc(N2CCC(CN3CCN(c4ccc5c(c4)C(=O)N(C4CCC(=O)NC4=O)C5=O)CC3)CC2)ccc1Nc1ncc(Cl)c(Nc2ccccc2N(C)S(C)(=O)=O)n1 (stereo not drawn) [Compound 67, N-(2-((5-chloro-2-((4-(4-((4-(2-(2,6-dioxopiperidin-3-yl)-1,3-dioxoisoindolin-5-yl)piperazin-1-yl)methyl)piperidin-1-yl)-2-methoxyphenyl)amino)pyrimidin-4-yl)amino)phenyl)-N-methylmethanesulfonamide] | ++ (Protein degradation > 80%) |  |  | − (Protein degradation < 20%)
9 | COc1cc(N2CCN(CC3CCN(c4ccc5c(c4)C(=O)N(C4CCC(=O)NC4=O)C5=O)CC3)CC2)ccc1Nc1ncc(Cl)c(Nc2ccccc2N(C)S(C)(=O)=O)n1 (stereo not drawn) [Compound 68] | ++ (Protein degradation > 80%) |  |  | + (Protein degradation 20~80%)
10 | COc1cc(N2CCC(N3CCN(CC#Cc4ccc5c(c4)C(=O)N(C4CCC(=O)NC4=O)C5=O)CC3)CC2)ccc1Nc1ncc(Cl)c(Nc2ccccc2N(C)S(C)(=O)=O)n1 (stereo not drawn) [Compound 72, N-(2-((5-chloro-2-((4-(4-(4-(3-(2-(2,6-dioxopiperidin-3-yl)-1,3-dioxoisoindolin-5-yl)prop-2-yn-1-yl)piperazin-1-yl)piperidin-1-yl)-2-methoxyphenyl)amino)pyrimidin-4-yl)amino)phenyl)-N-methylmethanesulfonamide] | − (Protein degradation < 20%) |  |  | − (Protein degradation < 20%)
